{"source": "paper PMC5690597", "about": "“Suppression and resolution of autoimmune arthritis by rhesus θ-defensin-1, an immunomodulatory macrocyclic peptide” (PLoS ONE, 2017)", "key": {"DA-PIA-FLS": {"tested_on": "DA-PIA-FLS", "experiment": "FLS proliferation (CyQuant)", "assay_type": "cell-based, DA rat", "conditions": "RTD-1 0–30 μg/ml; 24 or 48 h in culture; DNA staining", "protocol": "(§1) Fibroblast-like synoviocytes (FLS) were isolated by enzymatic digestion of the synovial tissue from DA rats with PIA as previously described. Cells were washed and suspended in DMEM supplemented with 10% fetal bovine serum (Gibco, Grand Island, NY), 30 mg/ml L-glutamine (Sigma), 250 μg/ml amphotericin B (Sigma), and […] gentamicin (Gibco). After overnight culture, non-adherent cells were removed and adherent cells were cultured to approximately 70–90% confluence and passaged following detachment with 0.25% trypsin-EDTA for 3 min at 37°C. All experiments were performed with FLS after at least four passages.\nAll assays were performed with ≥ 7 replicates."}, "joint IL-1β": {"tested_on": "joint IL-1β", "experiment": "Joint tissue cytokine analysis (IL-1β ELISA)", "assay_type": "in vivo, rat", "conditions": "5 mg/kg s.c. once a day for four days, PIA rats AS ≥ 3; ELISA of joint extract; P = 0.0054", "protocol": "Saline (control) and RTD-1 (5 mg/kg, s.c., qd) treated PIA rats were euthanized 4 days after disease onset (AS ≥ 3). The ankle joints and feet were snap frozen in liquid N2 and pulverized with mortar and pestle as described. One gram of tissue powder was extracted with 5 ml of ice cold 10 mM sodium phosphate, 150 mM NaCl, pH 7.4 (PBS) containing protease inhibitor tablets (cOmplete ULTRA with EDTA; Roche Diagnostics GmbH, Mannheim, Germany). Samples were vortexed for 30 seconds and extracts clarified by centrifugation. Supernatant IL-1β was quantified by ELISA (Life Technologies, Grand Island, NY)."}, "Cathepsin C": {"target": "Cathepsin C (Homo sapiens, UniProt P53634)", "sequence (P53634 25-463, species assumed)": "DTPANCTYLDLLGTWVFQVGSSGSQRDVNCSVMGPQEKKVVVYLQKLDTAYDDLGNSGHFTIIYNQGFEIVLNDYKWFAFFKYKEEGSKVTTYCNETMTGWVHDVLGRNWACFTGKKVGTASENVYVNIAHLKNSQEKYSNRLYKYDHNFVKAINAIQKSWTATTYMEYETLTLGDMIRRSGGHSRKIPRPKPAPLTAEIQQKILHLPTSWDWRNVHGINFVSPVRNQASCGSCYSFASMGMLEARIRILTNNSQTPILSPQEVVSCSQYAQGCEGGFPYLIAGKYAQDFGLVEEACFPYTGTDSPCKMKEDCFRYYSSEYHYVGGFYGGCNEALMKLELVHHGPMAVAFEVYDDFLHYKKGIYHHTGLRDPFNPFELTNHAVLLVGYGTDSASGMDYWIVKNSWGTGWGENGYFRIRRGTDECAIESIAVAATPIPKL", "experiment": "biochemical", "protocol": "(§2) RTD-1 inhibition of Cat B (BPS Bioscience, San Diego, CA) and Cats C, H, K, L, S, and V (R & D Systems) was analyzed in a 96 well format with enzyme-specific substrates per manufacturer’s instructions and as described in Table 1. The activity of each enzyme was determined in the presence of 0 to 50 μg/ml RTD-1.\n(§3) Inhibition of MMPs by RTD-1 was performed as described, incubating each enzyme with 0–100 μg/ml of RTD-1. IC50 values were calculated by GraphPad Prism 5.01 (GraphPad Software, San Diego, CA) utilizing a non-linear curve fit of log [inhibitor] versus response with variable slope."}, "Cathepsin K": {"target": "Cathepsin K (Homo sapiens, UniProt P43235)", "sequence (P43235 115-329, species assumed)": "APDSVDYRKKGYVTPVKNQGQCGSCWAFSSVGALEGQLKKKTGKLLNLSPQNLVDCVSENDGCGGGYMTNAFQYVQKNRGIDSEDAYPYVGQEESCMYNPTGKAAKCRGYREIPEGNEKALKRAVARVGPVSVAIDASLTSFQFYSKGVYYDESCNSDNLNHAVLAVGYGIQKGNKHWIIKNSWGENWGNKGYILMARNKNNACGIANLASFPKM", "experiment": "biochemical", "protocol": "as §2, §3"}, "Cathepsin L": {"target": "Cathepsin L (Homo sapiens, UniProt P07711)", "sequence (P07711 114-333, species assumed)": "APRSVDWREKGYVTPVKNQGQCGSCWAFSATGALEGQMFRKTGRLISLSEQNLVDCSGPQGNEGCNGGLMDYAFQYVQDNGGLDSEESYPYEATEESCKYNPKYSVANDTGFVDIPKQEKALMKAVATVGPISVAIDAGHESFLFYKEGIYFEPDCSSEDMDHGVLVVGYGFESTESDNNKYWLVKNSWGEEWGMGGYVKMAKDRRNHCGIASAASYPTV", "experiment": "biochemical", "protocol": "as §2, §3"}, "Cathepsin H": {"target": "Cathepsin H (Homo sapiens, UniProt P09668)", "sequence (P09668 98-335, species assumed)": "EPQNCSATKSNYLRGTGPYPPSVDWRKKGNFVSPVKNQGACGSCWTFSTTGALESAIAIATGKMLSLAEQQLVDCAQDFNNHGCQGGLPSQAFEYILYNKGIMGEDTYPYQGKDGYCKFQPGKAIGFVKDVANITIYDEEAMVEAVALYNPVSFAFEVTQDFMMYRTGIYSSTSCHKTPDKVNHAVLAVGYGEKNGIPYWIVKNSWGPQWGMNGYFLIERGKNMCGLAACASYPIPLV", "experiment": "biochemical", "protocol": "as §2, §3"}, "Cathepsin V": {"target": "Cathepsin V (Homo sapiens, UniProt O60911)", "sequence (O60911 114-334)": "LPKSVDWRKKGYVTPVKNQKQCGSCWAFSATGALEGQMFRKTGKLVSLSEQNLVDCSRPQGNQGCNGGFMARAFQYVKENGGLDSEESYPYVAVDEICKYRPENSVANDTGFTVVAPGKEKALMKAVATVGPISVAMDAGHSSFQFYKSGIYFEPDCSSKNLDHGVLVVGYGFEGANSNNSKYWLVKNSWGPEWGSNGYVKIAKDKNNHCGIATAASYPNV", "experiment": "biochemical", "protocol": "as §2, §3"}, "Cathepsin S": {"target": "Cathepsin S (Homo sapiens, UniProt P25774)", "sequence (P25774 115-331, species assumed)": "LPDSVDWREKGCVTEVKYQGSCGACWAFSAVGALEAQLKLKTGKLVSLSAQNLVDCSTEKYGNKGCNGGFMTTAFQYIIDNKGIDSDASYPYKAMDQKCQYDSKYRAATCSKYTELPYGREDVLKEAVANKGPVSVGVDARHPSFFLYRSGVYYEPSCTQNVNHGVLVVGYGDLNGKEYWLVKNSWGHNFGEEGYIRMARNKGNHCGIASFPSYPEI", "experiment": "biochemical", "protocol": "as §2, §3"}, "Cathepsin B": {"target": "Cathepsin B (Homo sapiens, UniProt P07858)", "experiment": "biochemical", "protocol": "as §2, §3"}, "[1]": {"conditions": "cited from earlier work"}, "[2]": {"tested_on": "IL-6 production by fibroblast-like synoviocytes (FLS)", "experiment": "Expression of IL-6 by stimulated FLS", "assay_type": "cell-based, DA rat", "conditions": "RTD-1 10 μg/ml; TNFα or IL-1β 3 or 10 ng/ml; 24 h; ELISA; n = 12, 3 experiments", "protocol": "as §1\nFLS were cultured in 12-well plates at 4–6 × 10^4 cells/well for 24 h (viability > 95% by trypan blue staining). Medium was replaced and FLS were incubated with TNFα or IL-1β at final concentrations of 3 or 10 ng/ml plus RTD-1 (10 μg/ml in 0.01% acetic acid (HOAc)) or vehicle alone. After 24 h incubation, FLS culture supernatants were removed, clarified by centrifugation, and analyzed for IL-6 by ELISA (Invitrogen, Carlsbad, CA)."}, "ADAM10": {"target": "ADAM10 (Homo sapiens, UniProt O14672)", "sequence (O14672 214-748, species assumed)": "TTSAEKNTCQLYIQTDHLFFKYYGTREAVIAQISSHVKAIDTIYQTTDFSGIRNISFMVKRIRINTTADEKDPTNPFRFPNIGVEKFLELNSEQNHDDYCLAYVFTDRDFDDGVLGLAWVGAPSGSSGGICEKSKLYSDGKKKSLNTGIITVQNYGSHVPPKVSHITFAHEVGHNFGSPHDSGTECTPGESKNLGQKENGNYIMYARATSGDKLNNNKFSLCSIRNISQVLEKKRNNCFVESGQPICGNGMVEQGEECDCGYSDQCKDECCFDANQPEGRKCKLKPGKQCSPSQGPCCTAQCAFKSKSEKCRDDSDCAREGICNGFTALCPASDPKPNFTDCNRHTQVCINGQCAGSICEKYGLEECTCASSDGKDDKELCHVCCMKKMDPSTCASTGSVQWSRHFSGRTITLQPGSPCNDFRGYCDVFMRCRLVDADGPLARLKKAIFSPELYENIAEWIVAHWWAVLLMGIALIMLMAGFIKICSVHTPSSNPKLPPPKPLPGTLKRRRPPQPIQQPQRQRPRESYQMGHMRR", "experiment": "biochemical", "protocol": "(§4) RTD-1 was analyzed for enzymatic inhibition against zinc metalloproteases ADAM17, ADAM10, matrix metalloproteases (MMPs) 1, 2, 3, 8, 9, 13, and 14, and cysteine cathepsins (Cats) B, C, H, K, L, S, and V (Table 1). ADAM10 and ADAM17 activities were measured by release of fluorogenic peptides cleaved from pro-TNF (R&D Systems, Minneapolis, MN). ADAM10 was diluted to 0.05 μg/ml and ADAM17 to 0.1 μg/ml with 25 mM TRIS, 2.5 μM ZnCl2, 0.005% Brij35, pH 9.0 and incubated with 0 to 3 μg/ml RTD-1 dissolved in 0.01% HOAc. Assay was initiated by addition of substrate (10 μM final) and enzymatic activity measured at 37°C (ADAM10) or 22°C (ADAM17) every 30 seconds for 1 h in a SpectraMax M5e fluorometer (Molecular Devices, Sunnyvale, CA) with 320 nm excitation and 405 nm emission.\nas §3"}, "ADAM17": {"target": "ADAM17 (Homo sapiens, UniProt P78536)", "sequence (P78536 215-824, species assumed)": "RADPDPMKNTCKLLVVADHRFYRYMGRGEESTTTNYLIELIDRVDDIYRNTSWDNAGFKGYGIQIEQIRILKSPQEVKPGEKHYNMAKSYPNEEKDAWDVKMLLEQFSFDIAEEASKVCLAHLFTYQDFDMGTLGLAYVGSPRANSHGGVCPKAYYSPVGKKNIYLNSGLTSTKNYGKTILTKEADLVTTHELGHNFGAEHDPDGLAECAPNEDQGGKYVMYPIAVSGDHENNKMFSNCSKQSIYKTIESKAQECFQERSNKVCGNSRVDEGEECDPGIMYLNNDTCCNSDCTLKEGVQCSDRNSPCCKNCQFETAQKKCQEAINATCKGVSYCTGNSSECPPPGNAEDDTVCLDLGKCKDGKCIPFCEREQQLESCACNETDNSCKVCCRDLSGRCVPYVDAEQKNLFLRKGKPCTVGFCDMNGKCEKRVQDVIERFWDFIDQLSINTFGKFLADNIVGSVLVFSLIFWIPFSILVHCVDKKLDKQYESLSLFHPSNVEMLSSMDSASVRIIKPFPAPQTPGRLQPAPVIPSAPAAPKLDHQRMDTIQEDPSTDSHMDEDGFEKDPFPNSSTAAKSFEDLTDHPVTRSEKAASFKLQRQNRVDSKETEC", "experiment": "biochemical", "protocol": "as §4, §3"}}, "note": "Bridge positions count the residues as written; N and C are the ends. Peptide text beside a SMILES is read from it.", "data": [{"smiles": "CC[C@H](C)[C@@H]1NC(=O)[C@@H]2CSSC[C@H](NC(=O)[C@H](CCCNC(=N)N)NC(=O)[C@@H]3CSSC[C@H](NC1=O)C(=O)N[C@@H]([C@@H](C)O)C(=O)N[C@@H](CCCNC(=N)N)C(=O)NCC(=O)N[C@@H](Cc1ccccc1)C(=O)N3)C(=O)N[C@@H](CC(C)C)C(=O)N[C@H]1CSSC[C@H](NC(=O)[C@H](C(C)C)NC(=O)CNC(=O)[C@H](CCCNC(=N)N)NC(=O)[C@H](CCCNC(=N)N)NC1=O)C(=O)N[C@@H](CCCNC(=N)N)C(=O)N2", "note": "[RTD-1, rhesus θ-defensin 1] (cyclo(GFCRCLCRRGVCRCICTR); disulfide 3-16, 5-14, 7-12)", "values": [{"measurement": "effect on FLS proliferation", "setting": "DA-PIA-FLS", "value": "dose-dependently suppressed FLS proliferation"}, {"measurement": "average reduction of joint IL-1β vs vehicle", "setting": "joint IL-1β", "value": 44, "unit": "%"}, {"measurement": "IC50", "setting": "Cathepsin C", "value": "3.7 ± 0.6", "unit": "µM"}, {"measurement": "IC50", "setting": "Cathepsin K; IC50, substrate z-FR-AMC 10 μM, enzyme 0.77 nM, RTD-1 0-50 μg/ml", "value": "27 ± 20", "unit": "nM"}, {"measurement": "IC50", "setting": "Cathepsin K; IC50 against cathepsin K, as quoted in running text from Table 1", "value": "~27", "unit": "nM"}, {"measurement": "IC50", "setting": "Cathepsin L", "value": "1400 ± 300", "unit": "nM"}, {"measurement": "IC50", "setting": "Cathepsin H", "value": "> 50", "unit": "µM"}, {"measurement": "IC50", "setting": "Cathepsin V", "value": "1800 ± 600", "unit": "nM"}, {"measurement": "IC50", "setting": "Cathepsin S", "value": "> 50", "unit": "µM"}, {"measurement": "IC50", "setting": "Cathepsin B", "value": "1000 ± 100", "unit": "nM"}, {"measurement": "stability in human plasma", "setting": "[1]", "value": "highly stable"}, {"measurement": "reduction of IL-6 production by FLS", "setting": "[2]", "value": "27.3–42.2%"}, {"measurement": "IC50", "setting": "ADAM10", "value": "450 ± 200", "unit": "nM"}, {"measurement": "IC50", "setting": "ADAM17", "value": "110 ± 40", "unit": "nM"}]}]}
